Target: mTOR/GbL/Raptor (mTORC1) (Homo sapiens, UniProt P42345)
Experiment: mTOR/GbL/Raptor (mTORC1) ELISA assay, phosphorylation of 4E-BP1
Format: biochemical
Settings: 0.2 nM mTORC1, 40 uM ATP, 50 nM NHis-tagged 4E-BP1, 120 minutes; read-out: IC50 in this assay (mTORC1 ELISA)
In short: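 Phospho-4E-BP1 was quantified by luminescent ELISA (anti-phospho-4E-BP1 IgG, HRP-tagged secondary) after capture of the His-tagged substrate on Ni-chelate plates.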

| Structure (SMILES) | IC50 [nM] |
| --- | --- |
| Cc1cc(-c2cnc(Cl)c(NS(C)(=O)=O)c2)cc2c1OCCN(c1nc(C(N)=O)nc(C)c1C(C)C)C2 [Compound 44, 4-[7-{6-chloro-5-[(methylsulfonyl)amino]pyridin-3-yl}-9-methyl-2,3-dihydro-1,4-benzoxazepin-4(5H)-yl]-6-methyl-5-(1-methylethyl)pyrimidine-2-carboxamide] | ≤ 100 |
| CCN(CCF)Cc1nc(C)c(C(C)C)c(N2CCOc3c(C)cc(-c4cnc5sc(N)nc5c4)cc3C2)n1 [Compound 159, 6-{4-[2-{[ethyl(2-fluoroethyl)amino]methyl}-6-methyl-5-(1-methylethyl)pyrimidin-4-yl]-9-methyl-2,3,4,5-tetrahydro-1,4-benzoxazepin-7-yl}[1,3]thiazolo[5,4-b]pyridin-2-amine] | ≤ 100 |
| CCCc1c(C)nc(N)nc1N1CCOc2c(C)cc(-c3cnc4sc(N)nc4c3)cc2C1 [Compound 41, 6-[4-(2-amino-6-methyl-5-propylpyrimidin-4-yl)-9-methyl-2,3,4,5-tetrahydro-1,4-benzoxazepin-7-yl][1,3]thiazolo[5,4-b]pyridin-2-amine] | ≤ 100 |
| C=Cc1c(C)ncnc1N1CCOc2c(C)cc(-c3cnc4sc(N)nc4c3)cc2C1 [Compound 115, 6-[4-(5-ethenyl-6-methylpyrimidin-4-yl)-9-methyl-2,3,4,5-tetrahydro-1,4-benzoxazepin-7-yl][1,3]thiazolo[5,4-b]pyridin-2-amine] | ≤ 100 |
| Cc1cc(-c2cnc3sc(N)nc3c2)cc2c1OCCN(c1nc([C@@H]3C[C@@H](F)CN3)nc(C)c1C(C)C)C2 [Compound 151, 6-(4-{2-[(2S,4R)-4-fluoropyrrolidin-2-yl]-6-methyl-5-(1-methylethyl)pyrimidin-4-yl}-9-methyl-2,3,4,5-tetrahydro-1,4-benzoazepin-7-yl)[1,3]thiazolo[5,4-b]pyridin-2-amine] | ≤ 100 |
| Cc1cc(-c2cnc3sc(N)nc3c2)cc2c1OCCN(c1nc(CNCC(F)(F)F)nc(C)c1C(C)C)C2 [Compound 103, 6-{9-methyl-4-[6-methyl-5-(1-methylethyl)-2-{[(2,2,2-trifluoroethyl)amino]methyl}pyrimidin-4-yl]-2,3,4,5-tetrahydro-1,4-benzoxazepin-7-yl}[1,3]thiazolo[5,4-b]pyridin-2-amine] | 100 to 500 |
| C=Cc1c(Cl)nc(N)nc1N1CCOc2c(C)cc(-c3cnc4sc(N)nc4c3)cc2C1 [Compound 40, 6-[4-(2-amino-6-chloro-5-ethenylpyrimidin-4-yl)-9-methyl-2,3,4,5-tetrahydro-1,4-benzoxazepin-7-yl][1,3]thiazolo[5,4-b]pyridin-2-amine] | ≤ 100 |
| CCN(Cc1nc(C)c(C(C)C)c(N2CCOc3c(C)cc(-c4nnc(N)s4)cc3C2)n1)CC(F)F [Compound 170, 5-{4-[2-{[(2,2-difluoroethyl)(ethyl)amino]methyl}-6-methyl-5-(1-methylethyl)pyrimidin-4-yl]-9-methyl-2,3,4,5-tetrahydro-1,4-benzoxazepin-7-yl}-1,3,4-thiadiazol-2-amine] | 100 to 500 |
| Cc1cc(-c2cnc3sc(N)nc3c2)cc2c1OCCN(c1nc(CNC3CC3)nc(C)c1C(C)C)C2 [Compound 121, 6-(4-{2-[(cyclopropylamino)methyl]-6-methyl-5-(1-methylethyl)pyrimidin-4-yl}-9-methyl-2,3,4,5-tetrahydro-1,4-benzoxazepin-7-yl)[1,3]thiazolo[5,4-b]pyridin-2-amine] | ≤ 100 |
| Cc1nc(C)c(C(C)C)c(N2CCOc3c(C)cc(-c4nnc(N)s4)cc3C2)n1 [Compound 172, 5-{4-[2,6-dimethyl-5-(1-methylethyl)pyrimidin-4-yl]-9-methyl-2,3,4,5-tetrahydro-1,4-benzoxazepin-7-yl}-1,3,4-thiadiazol-2-amine] | ≤ 100 |
| CNc1ncnc(N2CCOc3c(C)cc(-c4cnc5sc(N)nc5c4)cc3C2)c1[N+](=O)[O-] [Compound 148, 6-{9-methyl-4-[6-(methylamino)-5-nitropyrimidin-4-yl]-2,3,4,5-tetrahydro-1,4-benzoxazepin-7-yl}[1,3]thiazolo[5,4-b]pyridin-2-amine] | 100 to 500 |
| COCCc1nc(C)c(C(C)C)c(N2CCOc3c(C)cc(-c4cnc5sc(N)nc5c4)cc3C2)n1 [Compound 155, 6-(9-methyl-4-{6-methyl-5-(1-methylethyl)-2-[2-(methyloxy)ethyl]pyrimidin-4-yl}-2,3,4,5-tetrahydro-1,4-benzoxazepin-7-yl)[1,3]thiazolo[5,4-b]pyridin-2-amine] | ≤ 100 |
| Cc1ncc(C)c(N2CCOc3c(C)cc(-c4nnc(N)s4)cc3C2)n1 [Compound 174, 5-[4-(2,5-dimethylpyrimidin-4-yl)-9-methyl-2,3,4,5-tetrahydro-1,4-benzoxazepin-7-yl]-1,3,4-thiadiazol-2-amine] | ≤ 100 |
| Cc1cc(-c2cnc3sc(N)nc3c2)cc2c1OCCN(c1ncccc1C#N)C2 [Compound 38, 2-[7-(2-amino[1,3]thiazolo[5,4-b]pyridin-6-yl)-9-methyl-2,3-dihydro-1,4-benzoxazepin-4(5H)-yl]pyridine-3-carbonitrile] | 100 to 500 |
| Cc1cc(-c2nnc(N)s2)cc2c1OCCN(c1nc(N)nc(C)c1C)C2 [Compound 179, 4-[7-(5-amino-1,3,4-thiadiazol-2-yl)-9-methyl-2,3-dihydro-1,4-benzoxazepin-4(5H)-yl]-5,6-dimethylpyrimidin-2-amine] | ≤ 100 |
| CC(=O)c1c(C)ncnc1N1CCOc2c(C)cc(-c3cnc4sc(N)nc4c3)cc2C1 [Compound 125, 1-{4-[7-(2-amino[1,3]thiazolo[5,4-b]pyridin-6-yl)-9-methyl-2,3-dihydro-1,4-benzoxazepin-4(5H)-yl]-6-methylpyrimidin-5-yl}ethanone] | ≤ 100 |
| COc1ncc(-c2cc(C)c3c(c2)CN(c2nc(N)nc(C)c2C(C)C)CCO3)cn1 [Compound 82, 4-methyl-5-(1-methylethyl)-6-{9-methyl-7-[2-(methyloxy)pyrimidin-5-yl]-2,3-dihydro-1,4-benzoxazepin-4(5H)-yl}pyrimidin-2-amine] | 100 to 500 |
| Cc1cc(-c2nnc(N)s2)cc2c1OCCN(c1nc(CN(C)CC(F)F)nc(C)c1C(C)C)C2 [Compound 168, 5-{4-[2-{[(2,2-difluoroethyl)(methyl)amino]methyl}-6-methyl-5-(1-methylethyl)pyrimidin-4-yl]-9-methyl-2,3,4,5-tetrahydro-1,4-benzoxazepin-7-yl}-1,3,4-thiadiazol-2-amine] | ≤ 100 |
| Cc1cc(-c2cnc3sc(N)nc3c2)cc2c1OCCN(c1ncnc3c1CC[C@H](C)C3)C2 [Compound 30, 6-{9-methyl-4-[(7S)-7-methyl-5,6,7,8-tetrahydroquinazolin-4-yl]-2,3,4,5-tetrahydro-1,4-benzoxazepin-7-yl}[1,3]thiazolo[5,4-b]pyridin-2-amine] | ≤ 100 |
| Cc1nc2ccc(-c3cc(C)c4c(c3)CN(c3nc(N)nc(C)c3C(C)C)CCO4)cc2[nH]1 [Compound 2, 4-methyl-5-(1-methylethyl)-6-[9-methyl-7-(2-methyl-1H-benzimidazol-6-yl)-2,3-dihydro-1,4-benzoxazepin-4(5H)-yl]pyrimidin-2-amine] | ≤ 100 |
| Cc1cc(-c2cnc3sc(N)nc3c2)cc2c1OCCN(c1ncnc(Cl)c1C(C)(C)O)C2 [Compound 131, 2-{4-[7-(2-amino[1,3]thiazolo[5,4-b]pyridin-6-yl)-9-methyl-2,3-dihydro-1,4-benzoxazepin-4(5H)-yl]-6-chloropyrimidin-5-yl}propan-2-ol] | 100 to 500 |
| CCNC(=O)c1nc(C)c(C(C)C)c(N2CCOc3c(C)cc(-c4cnc5sc(N)nc5c4)cc3C2)n1 [Compound 113, 4-[7-(2-amino[1,3]thiazolo[5,4-b]pyridin-6-yl)-9-methyl-2,3-dihydro-1,4-benzoxazepin-4(5H)-yl]-N-ethyl-6-methyl-5-(1-methylethyl)pyrimidine-2-carboxamide] | ≤ 100 |
| C=Cc1c(C)nc(N)nc1N1CCOc2c(C)cc(-c3nnc(N)s3)cc2C1 [Compound 181, 4-[7-(5-amino-1,3,4-thiadiazol-2-yl)-9-methyl-2,3-dihydro-1,4-benzoxazepin-4(5H)-yl]-5-ethenyl-6-methylpyrimidin-2-amine] | ≤ 100 |
| Cc1cc(-c2cnc3sc(N)nc3c2)cc2c1OCCN(c1nc(C(C)O)nc(C)c1C(C)C)C2 (stereo not shown) [Compound 98, 1-{4-[7-(2-amino[1,3]thiazolo[5,4-b]pyridin-6-yl)-9-methyl-2,3-dihydro-1,4-benzoxazepin-4(5H)-yl]-6-methyl-5-(1-methylethyl)pyrimidin-2-yl}ethanol] | ≤ 100 |
| Cc1cc(-c2cnc3sc(N)nc3c2)cc2c1OCCN(c1nc(CNC(C)(C)C)nc(C)c1C(C)C)C2 [Compound 90, 6-{4-[2-{[(1,1-dimethylethyl)amino]methyl}-6-methyl-5-(1-methylethyl)pyrimidin-4-yl]-9-methyl-2,3,4,5-tetrahydro-1,4-benzoxazepin-7-yl}[1,3]thiazolo[5,4-b]pyridin-2-amine] | ≤ 100 |
| Cc1cc(-c2cnc3sc(N)nc3c2)cc2c1OCCN(c1nc(S(C)(=O)=O)nc(C)c1C(C)C)C2 [Compound 86, 6-{9-methyl-4-[6-methyl-5-(1-methylethyl)-2-(methylsulfonyl)pyrimidin-4-yl]-2,3,4,5-tetrahydro-1,4-benzoxazepin-7-yl}[1,3]thiazolo[5,4-b]pyridin-2-amine] | ≤ 100 |
| CCN(CC)Cc1nc(C)c(C(C)C)c(N2CCOc3c(C)cc(-c4cnc5sc(N)nc5c4)cc3C2)n1 [Compound 65, 6-(4-{2-[(diethylamino)methyl]-6-methyl-5-(1-methylethyl)pyrimidin-4-yl}-9-methyl-2,3,4,5-tetrahydro-1,4-benzoxazepin-7-yl)[1,3]thiazolo[5,4-b]pyridin-2-amine] | ≤ 100 |
| Cc1ncc(-c2cc(C)c3c(c2)CN(c2nc(N)nc(C)c2C(C)C)CCO3)s1 [Compound 118, 4-methyl-5-(1-methylethyl)-6-[9-methyl-7-(2-methyl-1,3-thiazol-5-yl)-2,3-dihydro-1,4-benzoxazepin-4(5H)-yl]pyrimidin-2-amine] | 100 to 500 |

Reference: patent US20140107100A1, “Benzoxazepines as Inhibitors of PI3K/mTOR and Methods of Their Use and Manufacture” (EXELIXIS, INC., priority 2010, published 2014)
